Reference: patent publication US10344025B2, “GLS1 inhibitors for treating disease” (Board of Regents, The University of Texas System, priority 2014, dated 2019)

Assays:
[1] = molecular target: purified recombinant human GAC (GLS1) (Homo sapiens (Human), UniProt O94925); test: GLS1 Enzymatic Activity Assay (dual-coupled enzymatic assay, resorufin/Amplex UltraRed readout); format: biochemical;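 also: glutamate from GAC coupled via glutamate oxidase and peroxidase to resorufin, read as fluorescence (ex 530, em 590 nm) kinetically or at 20 min, four-parameter logistic IC50 fit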
Chain of purified recombinant human GAC (GLS1) (O94925 other isoform, or with tags, fused parts or gaps): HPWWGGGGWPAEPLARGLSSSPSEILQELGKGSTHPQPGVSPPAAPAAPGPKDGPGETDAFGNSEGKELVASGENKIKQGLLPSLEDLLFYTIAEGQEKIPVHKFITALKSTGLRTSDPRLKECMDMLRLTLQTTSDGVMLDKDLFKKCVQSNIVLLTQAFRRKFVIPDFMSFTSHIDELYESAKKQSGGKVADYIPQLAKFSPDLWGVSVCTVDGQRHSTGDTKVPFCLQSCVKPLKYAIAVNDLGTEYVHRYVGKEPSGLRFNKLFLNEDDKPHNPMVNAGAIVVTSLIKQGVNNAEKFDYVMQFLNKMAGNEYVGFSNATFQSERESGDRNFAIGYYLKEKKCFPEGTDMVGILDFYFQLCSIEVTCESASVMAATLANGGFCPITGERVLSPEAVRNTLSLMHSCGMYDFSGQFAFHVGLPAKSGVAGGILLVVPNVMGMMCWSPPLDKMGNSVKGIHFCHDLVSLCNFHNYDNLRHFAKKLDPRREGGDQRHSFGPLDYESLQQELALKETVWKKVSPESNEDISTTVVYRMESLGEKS

A549 cells = test: Proliferation Assay (A549 viability, Cell Titer Fluor, 72 hours); format: cell-based; settings: Homo sapiens, A549, 72 h
Summary of the method: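 A549 cells seeded at 1000 cells/well, rested 24 h, then exposed to compound in 0.5% DMSO for 72 h at 37 °C. Viability read by Cell Titer Fluor fluorescence; IC50 from four-parameter logistic fit.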

Row | SMILES | IC50 [1] [µM] | EC50 (A549 cells) [µM]
1 | O=C(Cc1cccc(OC(F)(F)F)c1)Nc1nnc(CCC(F)Cn2cc(C(=O)NCc3cccc(C(F)(F)F)n3)nn2)s1 (centres unmarked) [Example 494, 1-[2-fluoro-4-(5-{2-[3-(trifluoromethoxy)phenyl]acetamido}-1,3,4-thiadiazol-2-yl)butyl]-N-{[6-(trifluoromethyl)pyridin-2-yl]methyl}-1H-1,2,3-triazole-4-carboxamide] | < 0.1 | < 0.1
2 | O=C(NCc1cccc(OC(F)(F)F)c1)c1cn(CCC(F)Cn2cc(C(=O)NCc3cncc(C(F)(F)F)c3)nn2)nn1 (centres unmarked) [Example 477, 1-{2-fluoro-4-[4-({[3-(trifluoromethoxy)phenyl]methyl}carbamoyl)-1H-1,2,3-triazol-1-yl]butyl}-N-{[5-(trifluoromethyl)pyridin-3-yl]methyl}-1H-1,2,3-triazole-4-carboxamide] | < 0.1 | < 0.1
3 | CNC(=O)c1cn(CC(F)CCc2nnc(C(=O)NCc3cccc(N4CCCCC4)c3)s2)nn1 (centres unmarked) [Example 209, 5-(3-fluoro-4-(4-(methylcarbamoyl)-1H-1,2,3-triazol-1-yl)butyl)-N-(3-(piperidin-1-yl)benzyl)-1,3,4-thiadiazole-2-carboxamide] | 0.1 to 0.5 | 0.1 to 0.5
4 | O=C(NCc1cccc(OC(F)(F)F)c1)c1cn(CCCCc2nnc(C(=O)NCC3COC3)s2)nn1 [Example 50, N-(oxetan-3-ylmethyl)-5-{4-[4-({[3-(trifluoromethoxy)phenyl]methyl}carbamoyl)-1H-1,2,3-triazol-1-yl]butyl}-1,3,4-thiadiazole-2-carboxamide] | 0.1 to 0.5 | 0.5 to 5
5 | O=C(NCc1cccc(OC(F)(F)F)c1)c1cn(CCCCn2cc(C(=O)NCC3CCOCC3)nn2)nn1 [Example 94, N-(oxan-4-ylmethyl)-1-{4-[4-({[3-(trifluoromethoxy)phenyl]methyl}carbamoyl)-1H-1,2,3-triazol-1-yl]butyl}-1H-1,2,3-triazole-4-carboxamide] | 0.1 to 0.5 | 0.1 to 0.5
6 | CNC(=O)c1cn(CCC(F)Cn2cc(C(=O)NCc3ccc(C)nc3)nn2)nn1 (centres unmarked) [Example 187, 1-[3-fluoro-4-(4-{[(6-methylpyridin-3-yl)methyl]carbamoyl}-1H-1,2,3-triazol-1-yl)butyl]-N-methyl-1H-1,2,3-triazole-4-carboxamide] | 0.1 to 0.5 | > 5
7 | O=C(CN1CC(F)(F)C1)Nc1cn(CCCCn2cc(C(=O)NCc3cccc(OC(F)(F)F)c3)nn2)nn1 [Example 330, 1-(4-{4-[2-(3,3-difluoroazetidin-1-yl)acetamido]-1H-1,2,3-triazol-1-yl}butyl)-N-{[3-(trifluoromethoxy)phenyl]methyl}-1H-1,2,3-triazole-4-carboxamide] | < 0.1 | 0.1 to 0.5
8 | CNC(=O)c1cn(CCCCc2ccc(NC(=O)Cc3cc(C(C)C(F)(F)F)ccn3)nn2)nn1 (centres unmarked) [Example 258, N-methyl-1-(4-(6-(2-(4-(1,1,1-trifluoropropan-2-yl)pyridin-2-yl)acetamido)pyridazin-3-yl)butyl)-1H-1,2,3-triazole-4-carboxamide] | < 0.1 | < 0.1
9 | O=C(Cc1cccc(OC(F)(F)F)c1)Nc1cn(CCCCn2cc(C(=O)NCc3cccnc3)nn2)nn1 [Example 307, N-(pyridin-3-ylmethyl)-1-[4-(4-{2-[3-(trifluoromethoxy)phenyl]acetamido}-1H-1,2,3-triazol-1-yl)butyl]-1H-1,2,3-triazole-4-carboxamide] | < 0.1 | 0.1 to 0.5
10 | O=C(Cc1cccc(OC(F)(F)F)c1)Nc1nnc(CCCCn2cc(C(=O)NCc3ccccc3)nn2)s1 [Example 16, N-benzyl-[4-(5-{2-[3-(trifluoromethoxy)phenyl]acetamido}-1,3,4-thiadiazol-2-yl)butyl]-1H-1,2,3-triazole-4-carboxamide] | < 0.1 | < 0.1
11 | COc1ccnc(CNC(=O)c2cn(CC(F)CCc3nnc(NC(=O)Cc4cc(OC(F)(F)F)ccc4F)s3)nn2)c1 (centres unmarked) [Example 205, 1-(2-fluoro-4-(5-(2-(2-fluoro-5-(trifluoromethoxy)phenyl)acetamido)-1,3,4-thiadiazol-2-yl)butyl)-N-((4-methoxypyridin-2-yl)methyl)-1H-1,2,3-triazole-4-carboxamide] | < 0.1 | < 0.1
12 | Cc1ccc(CNC(=O)c2cn(CCCCn3cc(NC(=O)Cc4ccccn4)nn3)nn2)cn1 [Example 314, N-[(6-methylpyridin-3-yl)methyl]-1-(4-{4-[2-(pyridin-2-yl)acetamido]-1H-1,2,3-triazol-1-yl}butyl)-1H-1,2,3-triazole-4-carboxamide] | 0.1 to 0.5 | 0.5 to 5
13 | O=C(Cc1cccc(OC(F)(F)F)c1)Nc1nnc(CCCCn2cc(C(=O)NCc3cccc(OC(F)(F)F)c3)nn2)s1 [Example 20, 1-[4-(5-{2-[3-(trifluoromethoxy)phenyl]acetamido}-1,3,4-thiadiazol-2-yl)butyl}-N-{[3-(trifluoromethoxy)phenyl]methyl}-1H-1,2,3-triazole-4-carboxamide] | < 0.1 | < 0.1
14 | O=C(Cc1cccc(OC(F)(F)F)c1)Nc1cn(CC(F)CCn2cc(C(=O)NCc3ncccc3F)nn2)nn1 (centres unmarked) [Example 341, 1-[3-fluoro-4-(4-{2-[3-(trifluoromethoxy)phenyl]acetamido}-1H-1,2,3-triazol-1-yl)butyl]-N-[(3-fluoropyridin-2-yl)methyl]-1H-1,2,3-triazole-4-carboxamide] | < 0.1 | 0.1 to 0.5
15 | O=C(NCc1cncc(C(F)(F)F)c1)c1cn(CCCCn2cc(C(=O)NCc3cc(C4CC4)ccn3)nn2)nn1 [Example 135, 1-[4-(4-{[(4-cyclopropylpyridin-2-yl)methyl]carbamoyl}-1H-1,2,3-triazol-1-yl)butyl]-N-{[5-(trifluoromethyl)pyridin-3-yl]methyl}-1H-1,2,3-triazole-4-carboxamide] | < 0.1 | < 0.1
16 | O=C(NCc1cccc(C(F)(F)F)c1)c1cn(CC(F)CCc2nnc(C(=O)NCc3cncc(C(F)(F)F)c3)s2)nn1 (centres unmarked) [Example 484, 5-{3-fluoro-4-[4-({[3-(trifluoromethyl)phenyl]methyl}carbamoyl)-1H-1,2,3-triazol-1-yl]butyl}-N-{[5-(trifluoromethyl)pyridin-3-yl]methyl}-1,3,4-thiadiazole-2-carboxamide] | < 0.1 | < 0.1
17 | CC(=O)Nc1ccc(CCCCc2nnc(C(=O)NCc3cncc(C(F)(F)F)c3)s2)nn1 [Example 602, 5-(4-(6-acetamidopyridazin-3-yl)butyl)-N-((5-(trifluoromethyl)pyridin-3-yl)methyl)-1,3,4-thiadiazole-2-carboxamide] | < 0.1 | < 0.1
18 | C[C@H](NC(=O)c1cn(CCCCn2cc(C(=O)NCc3cc(C(F)(F)F)ccn3)nn2)nn1)c1ccccc1 [Example 99, 1-[4-(4-{[(1S)-1-phenylethyl]carbamoyl}-1H-1,2,3-triazol-1-yl)butyl]-N-{[4-(trifluoromethyl)pyridin-2-yl]methyl}-1H-1,2,3-triazole-4-carboxamide] | 0.5 to 5 | 0.5 to 5
19 | O=C(NCc1cccc(OC(F)(F)F)c1)c1cn(CC(F)CCc2nnc(C(=O)NCc3cc(C(F)(F)F)ccn3)s2)nn1 (centres unmarked) [Example 463, 5-{3-fluoro-4-[4-({[3-(trifluoromethoxy)phenyl]methyl}carbamoyl)-1H-1,2,3-triazol-1-yl]butyl}-N-{[4-(trifluoromethyl)pyridin-2-yl]methyl}-1,3,4-thiadiazole-2-carboxamide] | < 0.1 | < 0.1
